Laboratory results reported in ChEMBL document CHEMBL5241102, “Drugs for the treatment of glaucoma: Targets, structure-activity relationships and clinical research” (Eur J Med Chem, 2021).
Where “and” joins values, the source holds several entries; their conditions need not be identical. Equal values may be shown once. Each block holds one compound with its values, some of them ahead of it.

Experiments:
[1] = Induction of disruption of actin stress fibers in PTM cells by actin stress fiber assay; format: functional, cell-based, Sus scrofa; settings: ptm cell
[2] = Induction of disruption of actin stress fibers in human TM1 cells by actin stress fiber assay; format: functional, cell-based
Autotaxin = Autotaxin (Homo sapiens, UniProt Q13822); assay: Inhibition of ATX (unknown origin)
[3] = Half life in rabbit; format: ADME, Oryctolagus cuniculus; settings: in vivo
Mus musculus = organism: Mus musculus; assay: Antiglaucoma activity in mouse eye assessed as increase in lymphatic drainage relative to control; format: functional
[4] = Half life in human; format: ADME
Rhesus monkey = assay: Antiglaucoma activity in ocular […] monkey assessed as reduction in intraocular pressure; format: functional, organism-based; settings: Macaca mulatta
[5] = target: Prostaglandin E2 receptor EP2 subtype (Homo sapiens, UniProt P43116); assay: Binding affinity to EP2 (unknown origin) assessed as inhibition constant
Prostaglandin E2 receptor EP2 subtype, sequence (P43116 whole entry): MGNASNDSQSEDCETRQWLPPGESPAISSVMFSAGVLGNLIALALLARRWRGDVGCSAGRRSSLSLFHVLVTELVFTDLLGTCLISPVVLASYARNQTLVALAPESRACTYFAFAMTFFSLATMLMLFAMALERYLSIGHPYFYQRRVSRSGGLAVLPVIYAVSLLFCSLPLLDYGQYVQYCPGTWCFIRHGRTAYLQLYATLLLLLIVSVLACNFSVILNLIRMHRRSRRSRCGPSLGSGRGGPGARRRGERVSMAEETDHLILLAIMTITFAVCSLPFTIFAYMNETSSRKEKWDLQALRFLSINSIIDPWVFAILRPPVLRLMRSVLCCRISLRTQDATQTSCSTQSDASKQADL

[6] = target: T1, Prostaglandin E2 receptor EP3 subtype (Homo sapiens, UniProt P43115); assay: Agonist activity at EP3 (unknown origin)
T1 sequence (P43115 whole entry): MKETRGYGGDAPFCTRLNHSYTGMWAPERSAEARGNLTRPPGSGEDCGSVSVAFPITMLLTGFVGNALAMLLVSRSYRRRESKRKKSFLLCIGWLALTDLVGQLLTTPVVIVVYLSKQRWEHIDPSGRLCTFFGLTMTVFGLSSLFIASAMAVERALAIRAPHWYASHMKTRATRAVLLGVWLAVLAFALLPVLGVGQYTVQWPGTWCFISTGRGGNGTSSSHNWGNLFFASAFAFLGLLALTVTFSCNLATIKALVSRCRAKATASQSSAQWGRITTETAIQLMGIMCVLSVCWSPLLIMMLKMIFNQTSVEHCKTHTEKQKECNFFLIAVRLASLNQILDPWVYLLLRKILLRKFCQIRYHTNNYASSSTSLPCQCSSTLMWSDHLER

[7] = target: Prostaglandin F2-alpha receptor (Homo sapiens, UniProt P43088); assay: Agonist activity at FP receptor (unknown origin)
Prostaglandin F2-alpha receptor, sequence (P43088 whole entry): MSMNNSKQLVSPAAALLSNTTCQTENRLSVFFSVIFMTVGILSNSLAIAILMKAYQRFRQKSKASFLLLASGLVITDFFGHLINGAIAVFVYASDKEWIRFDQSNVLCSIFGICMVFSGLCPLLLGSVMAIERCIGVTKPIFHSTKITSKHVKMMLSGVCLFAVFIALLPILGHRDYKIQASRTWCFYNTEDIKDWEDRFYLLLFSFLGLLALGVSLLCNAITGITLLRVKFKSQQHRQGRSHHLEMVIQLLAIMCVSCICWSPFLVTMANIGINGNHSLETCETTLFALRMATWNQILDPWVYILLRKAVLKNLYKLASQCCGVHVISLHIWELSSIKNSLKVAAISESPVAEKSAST

IC50 [1]: 79 nM
IC50 [2]: 16 nM
Structure (SMILES): Cc1ccc(C(=O)OCc2ccc([C@@H](CN)C(=O)Nc3ccc4cnccc4c3)cc2)c(C)c1

IC50 [1]: 22 nM and 3 nM
Structure (SMILES): NC[C@@H](C(=O)Nc1ccc2cnccc2c1)c1ccc(CO)cc1

IC50 (Autotaxin): 110 nM
Structure (SMILES): CCCCCn1c(N2CCC[C@H](C(=O)O)C2)cc(=O)n2cc(-c3ccc(Cl)cc3)nc12

half-life [3]: 108 min
Structure (SMILES): O=C(CCC/C=C\C[C@@H]1[C@@H](CC[C@@H](O)CCc2ccccc2)[C@H](O)C[C@@H]1O)OCCCCO[N+](=O)[O-] [LATANOPROSTENE BUNOD]

Structure (SMILES): CC(C)OC(=O)CCC/C=C\C[C@@H]1[C@@H](CC[C@@H](O)CCc2ccccc2)[C@H](O)C[C@@H]1O [LATANOPROST]
Activity (Mus musculus): 400%

half-life [4]: 30 min
EC50 (Rhesus monkey): 8.3 nM
Ki [5]: 3.6 nM
Structure (SMILES): O=C(O)CNc1cccc(CN(Cc2ccc(-n3cccn3)cc2)S(=O)(=O)c2cccnc2)n1 [OMIDENEPAG]

EC50 [6]: 28.6 nM
EC50 [7]: 22.3 nM
Structure (SMILES): O=C(O)CCC[C@H]1CC[C@@H]2[C@@H](/C=C/[C@@H](O)COc3cc(F)ccc3F)[C@H](O)C[C@@H]2OC1 [ONO-AG-367]

EC50 [6]: 10 nM
EC50 [7]: 3030 nM
Structure (SMILES): CC(C)OC(=O)CCC[C@H]1CC[C@@H]2[C@@H](/C=C/[C@@H](O)COc3cc(F)ccc3F)[C@H](O)C[C@@H]2OC1 [SEPETAPROST]
